Source: patent EP2954896A1, “Small molecule inhibitors of the E3 Ligase Skp2 in depression and other diseases” (Max-Planck-Gesellschaft zur Förderung der Wissenschaften …, priority 2014, dated 2015)

Assays:
[1] = Forced swim test after acute antidepressant injection in Fkbp51+/+ and Fkbp51-/- mice; type: in vivo; details: acute injection 10 mgkg-1
Procedure: The Fkbp51^-/- mouse line was previously generated (Touma C et al. (2011) Biol. Psychiatry 70: 928-936) and fully backcrossed to C57/BI6. […] Hippocampus and prefrontal cortex were extracted. […] Male mice (age 10-16 weeks) were injected intraperitoneally with a single dose of either AMI (10 mg kg^-1) or saline vehicle. […] Another subgroup (WT n=5, KO n=5) was sacrificed, and brain tissue and blood was sampled for analysis of drug concentrations. […] The inventors performed an additional forced swim test administering the antidepressant amitriptyline in FKBP51 WT and FKBP51 KO mice (Fig. 1 B).

[2] = Chronic PAR treatment after chronic social defeat stress: physiological and neuroendocrine parameters; type: in vivo, mice
Source text: Initially, wild-type and 51 KOmice were split into 2 x 2 groups (control WT, control FKBP51^-/-, defeat WT, defeat FKBP51^-/-) and subjected to the chronic stress procedure described below. After cessation of the stressor, groups were subdivided into vehicle-treated and paroxetine-treated animals, resulting in 8 groups (n = 7-13 per group). The treatment phase lasted for three weeks. The behavioral tests took place during the last week of the paroxetine treatment.
The CSDS paradigm lasted for 21 days. Briefly, the experimental mice were introduced into the home cage (45 cm x 25 cm) of a dominant resident mouse and defeated shortly after. When the defeat was achieved, the animals were separated by a wire mesh, preventing physical but allowing sensory contact for 24 h. Each day, stressed animals were defeated by another unfamiliar, dominant resident mouse in order to exclude a repeated encounter throughout the experiment. The daily defeat was performed between 11:00 and 16:00 h; varying starting times reduced the predictability of the stressor and therefore minimized a potential habituation effect. […] Both stress and control animals were handled daily during the stress procedure; body weight for all mice was assessed at the beginning of the experiment, after the cessation of the stress period, and on the day of killing. […]

[3] = test system: autophagy pathway markers; experiment: Chronic PAR treatment after chronic social defeat stress: autophagy pathway marker protein levels; type: in vivo, mice; details: effect of deletion of FKBP51
Procedure: Western blot analysis was performed on eluates from ColPs or with protein extracts from cells or tissue. Protein extracts were obtained by lysing cells or tissue (prelysed as described in the paragraph before) in 62.5 mM Tris, 2% SDS and 10% sucrose, supplemented with protease (Sigma, P2714) and phosphatase (Roche, 04906837001) inhibitor cocktail. Samples were sonicated and heated at 95 °C for 5 min. Proteins were separated by SDS-PAGE and electro-transferred onto nitrocellulose membranes. Blots were placed in Tris-buffered saline, supplemented with 0.05% Tween (Sigma, P2287) and 5% non-fat milk for 1 h at room temperature and then incubated with primary antibody (diluted in TBS/0.05% Tween) overnight at 4 °C. […]

SMILES: Fc1ccc([C@@H]2CCNC[C@H]2COc2ccc3c(c2)OCO3)cc1 [PAR, paroxetine]
- time spent struggling, forced swim test ([1]; Fkbp51+/+ mice): increase in the time spent struggling
- time floating (immobility), forced swim test ([1]; Fkbp51+/+ mice, versus vehicle): less time floating
- effect on time floating (immobility), forced swim test ([1]; Fkbp51-/- mice): significantly less pronounced
- effect on time spent struggling, forced swim test ([1]; Fkbp51-/- mice): significantly attenuated
- paroxetine-induced body weight increase ([2]; 51 KO versus wild-type mice): significantly less affected
- paroxetine-induced body weight increase ([2]; basal conditions versus stressed animals): significantly enhanced in mice under basal conditions compared to stressed animals
- effects on autophagy pathway markers Beclin1, Atg12, pAktS473/Akt and LC3BII/I [3]: abolished
